Tested on: late watergrass
Assay: Test Example 1: herbicidal activity, application before weed generation under submerged conditions (Table 16, symbol A)
Assay type: in vivo, late watergrass (Echinochloa oryzicola)
Conditions: 320 g/ha applied herbicide
Outline: (§1)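 Emulsion formulation, water-diluted to set dose, was put onto the flooded surface (4 cm depth, alluvial soil) the same day weeds were sown and 2.5-leaf rice transplanted. After 3 weeks at 25-30 °C under glass, each species was rated 0 (≤5% kill) to 5 (≥90% kill).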

Compound	Herbicidal effect on A: late watergrass (grade 0-5)
Cc1nn(C)c(=O)c(-c2c(-c3ccc(OCc4ccccc4)cc3)sc3ccccc23)c1O [1-133]	5 (Herbicidal rate of 90% or more (almost completely withered))
Cc1nn(C)c(=O)c(-c2c(-c3ccc(OCC4CC4(F)F)cc3)sc3ccccc23)c1O (centres unmarked) [1-138]	3 (Herbicidal rate of 40% or more and less than 70%)

Tested on: Japanese bulrush
Assay: Test Example 1: herbicidal activity, application before weed generation under submerged conditions (Table 16, symbol B)
Assay type: in vivo, Japanese bulrush (Schoenoplectus juncoides)
Conditions: 320 g/ha applied herbicide
Outline: as §1

Compound	Herbicidal effect on B: Japanese bulrush (grade 0-5)
Cc1nn(C)c(=O)c(-c2c(-c3ccc(OCc4ccccc4)cc3)sc3ccccc23)c1O [1-133]	5 (Herbicidal rate of 90% or more (almost completely withered))
Cc1nn(C)c(=O)c(-c2c(-c3ccc(OCC4CC4(F)F)cc3)sc3ccccc23)c1O (centres unmarked) [1-138]	3 (Herbicidal rate of 40% or more and less than 70%)

Tested on: oval-leafed pondweed
Assay: Test Example 1: herbicidal activity, application before weed generation under submerged conditions (Table 16, symbol C)
Assay type: in vivo, oval-leafed pondweed (Monochoria vaginalis)
Conditions: 320 g/ha applied herbicide
Outline: as §1

Compound	Herbicidal effect on C: oval-leafed pondweed (grade 0-5)
Cc1nn(C)c(=O)c(-c2c(-c3ccc(OCc4ccccc4)cc3)sc3ccccc23)c1O [1-133]	3 (Herbicidal rate of 40% or more and less than 70%)
Cc1nn(C)c(=O)c(-c2c(-c3ccc(OCC4CC4(F)F)cc3)sc3ccccc23)c1O (centres unmarked) [1-138]	3 (Herbicidal rate of 40% or more and less than 70%)

Tested on: barnyard grass
Assay: Test Example 3: herbicidal effect by foliage application, Wagner pot (Table 18, symbol H)
Assay type: in vivo, barnyard grass (Echinochloa crus-galli)
Conditions: 320 g/ha
Outline: (§2)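 Plants were sown in alluvial soil held under 0.1–0.5 cm standing water and grown 14 days in a greenhouse at 25–30 °C. An emulsifiable formulation, water-diluted to the set dose, was then sprayed onto the foliage, and effects were scored three weeks later using previously defined criteria.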

Compound	herbicidal effect on H (barnyard grass), rating 0-5
Cc1nn(C)c(=O)c(-c2c(-c3ccc(OCc4ccccc4)cc3)sc3ccccc23)c1O [1-133]	5 (Herbicidal rate of 90% or more (almost completely withered))
Cc1nn(C)c(=O)c(-c2c(-c3ccc(OCC4CC4(F)F)cc3)sc3ccccc23)c1O (centres unmarked) [1-138]	5 (Herbicidal rate of 90% or more (almost completely withered))

Tested on: Chinese sprangletop
Assay: Test Example 3: herbicidal effect by foliage application, Wagner pot (Table 18, symbol D)
Assay type: in vivo, chinese sprangletop (Leptochloa chinensis)
Conditions: 320 g/ha
Outline: as §2

Compound	herbicidal effect on D (Chinese sprangletop), rating 0-5
Cc1nn(C)c(=O)c(-c2c(-c3ccc(OCc4ccccc4)cc3)sc3ccccc23)c1O [1-133]	3 (Herbicidal rate of 40% or more and less than 70%)
Cc1nn(C)c(=O)c(-c2c(-c3ccc(OCC4CC4(F)F)cc3)sc3ccccc23)c1O (centres unmarked) [1-138]	3 (Herbicidal rate of 40% or more and less than 70%)

Tested on: rice flat sedge
Assay: Test Example 3: herbicidal effect by foliage application, Wagner pot (Table 18, symbol E)
Assay type: in vivo, rice flat sedge (Cyperus iria)
Conditions: 320 g/ha
Outline: as §2

Compound	herbicidal effect on E (rice flat sedge), rating 0-5
Cc1nn(C)c(=O)c(-c2c(-c3ccc(OCc4ccccc4)cc3)sc3ccccc23)c1O [1-133]	5 (Herbicidal rate of 90% or more (almost completely withered))
Cc1nn(C)c(=O)c(-c2c(-c3ccc(OCC4CC4(F)F)cc3)sc3ccccc23)c1O (centres unmarked) [1-138]	5 (Herbicidal rate of 90% or more (almost completely withered))

Tested on: Italian ryegrass
Assay: Test Example 4: herbicidal effect by soil treatment (Table 19, symbol K)
Assay type: in vivo, Italian ryegrass (Lolium multiflorum)
Conditions: AAH 320 g/ha
Outline: (§3)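 Applied as a water-diluted emulsion, the compound was sprayed onto soil covering newly sown seeds. Evaluation came three weeks after application, in a greenhouse held at 25° C. to 30° C.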

Compound	K: Italian ryegrass, herbicidal effect rating
Cc1nn(C)c(=O)c(-c2c(-c3ccc(OCc4ccccc4)cc3)sc3ccccc23)c1O [1-133]	0 (Herbicidal rate of 5% or less (almost no effect))
Cc1nn(C)c(=O)c(-c2c(-c3ccc(OCC4CC4(F)F)cc3)sc3ccccc23)c1O (centres unmarked) [1-138]	5 (Herbicidal rate of 90% or more (almost completely withered))

Tested on: windgrass
Assay: Test Example 4: herbicidal effect by soil treatment (Table 19, symbol L)
Assay type: in vivo, windgrass (Apera spica-venti)
Conditions: AAH 320 g/ha
Outline: as §3

Compound	L: windgrass, herbicidal effect rating
Cc1nn(C)c(=O)c(-c2c(-c3ccc(OCc4ccccc4)cc3)sc3ccccc23)c1O [1-133]	0 (Herbicidal rate of 5% or less (almost no effect))
Cc1nn(C)c(=O)c(-c2c(-c3ccc(OCC4CC4(F)F)cc3)sc3ccccc23)c1O (centres unmarked) [1-138]	0 (Herbicidal rate of 5% or less (almost no effect))

Tested on: lambsquarters
Assay: Test Example 4: herbicidal effect by soil treatment (Table 19, symbol O)
Assay type: in vivo, lambsquarters (Chenopodium album)
Conditions: AAH 320 g/ha
Outline: as §3

Compound	O: lambsquarters, herbicidal effect rating
Cc1nn(C)c(=O)c(-c2c(-c3ccc(OCc4ccccc4)cc3)sc3ccccc23)c1O [1-133]	1 (Herbicidal rate of 5% or more and less than 20%)
Cc1nn(C)c(=O)c(-c2c(-c3ccc(OCC4CC4(F)F)cc3)sc3ccccc23)c1O (centres unmarked) [1-138]	5 (Herbicidal rate of 90% or more (almost completely withered))

Tested on: chickweed
Assay: Test Example 4: herbicidal effect by soil treatment (Table 19, symbol P)
Assay type: in vivo, common chickweed (Stellaria media)
Conditions: AAH 320 g/ha
Outline: as §3

Compound	P: chickweed, herbicidal effect rating
Cc1nn(C)c(=O)c(-c2c(-c3ccc(OCc4ccccc4)cc3)sc3ccccc23)c1O [1-133]	0 (Herbicidal rate of 5% or less (almost no effect))
Cc1nn(C)c(=O)c(-c2c(-c3ccc(OCC4CC4(F)F)cc3)sc3ccccc23)c1O (centres unmarked) [1-138]	4 (Herbicidal rate of 70% or more and less than 90%)

Tested on: persian speedwell
Assay: Test Example 4: herbicidal effect by soil treatment (Table 19, symbol R)
Assay type: in vivo, Persian speedwell (Veronica persica)
Conditions: AAH 320 g/ha
Outline: as §3

Compound	R: persian speedwell, herbicidal effect rating
Cc1nn(C)c(=O)c(-c2c(-c3ccc(OCc4ccccc4)cc3)sc3ccccc23)c1O [1-133]	5 (Herbicidal rate of 90% or more (almost completely withered))
Cc1nn(C)c(=O)c(-c2c(-c3ccc(OCC4CC4(F)F)cc3)sc3ccccc23)c1O (centres unmarked) [1-138]	5 (Herbicidal rate of 90% or more (almost completely withered))

Tested on: southern crabgrass
Assay: Test Example 5: herbicidal effect by foliage application, plastic box (Table 20, symbol F)
Assay type: in vivo, southern crabgrass (Digitaria ciliaris)
Conditions: foliage application, AAH 320 g/ha, three weeks after application
Outline: (§4)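 Sow seeds spot-wise in sterilized diluvial soil; cover with ~1.5 cm soil. Grow 14 days in greenhouse, 25° C. to 30° C. Spray foliage with emulsion diluted to predetermined amount. Rate effect after 3 weeks.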

Compound	F: southern crabgrass, herbicidal effect
Cc1nn(C)c(=O)c(-c2c(-c3ccc(OCc4ccccc4)cc3)sc3ccccc23)c1O [1-133]	3 (Herbicidal rate of 40% or more and less than 70%)
Cc1nn(C)c(=O)c(-c2c(-c3ccc(OCC4CC4(F)F)cc3)sc3ccccc23)c1O (centres unmarked) [1-138]	0 (Herbicidal rate of 5% or less (almost no effect))

Tested on: barnyard grass
Assay: Test Example 5: herbicidal effect by foliage application, plastic box (Table 20, symbol H)
Assay type: in vivo, barnyard grass (Echinochloa crus-galli)
Conditions: foliage application, AAH 320 g/ha, three weeks after application
Outline: as §4

Compound	H: barnyard grass, herbicidal effect
Cc1nn(C)c(=O)c(-c2c(-c3ccc(OCc4ccccc4)cc3)sc3ccccc23)c1O [1-133]	5 (Herbicidal rate of 90% or more (almost completely withered))
Cc1nn(C)c(=O)c(-c2c(-c3ccc(OCC4CC4(F)F)cc3)sc3ccccc23)c1O (centres unmarked) [1-138]	5 (Herbicidal rate of 90% or more (almost completely withered))

Tested on: wild oat
Assay: Test Example 5: herbicidal effect by foliage application, plastic box (Table 20, symbol I)
Assay type: in vivo, wild oat (Avena fatua)
Conditions: foliage application, AAH 320 g/ha, three weeks after application
Outline: as §4

Compound	I: wild oat, herbicidal effect
Cc1nn(C)c(=O)c(-c2c(-c3ccc(OCc4ccccc4)cc3)sc3ccccc23)c1O [1-133]	0 (Herbicidal rate of 5% or less (almost no effect))
Cc1nn(C)c(=O)c(-c2c(-c3ccc(OCC4CC4(F)F)cc3)sc3ccccc23)c1O (centres unmarked) [1-138]	0 (Herbicidal rate of 5% or less (almost no effect))

Tested on: blackgrass
Assay: Test Example 5: herbicidal effect by foliage application, plastic box (Table 20, symbol J)
Assay type: in vivo, blackgrass (Alopecurus myosuroides)
Conditions: foliage application, AAH 320 g/ha, three weeks after application
Outline: as §4

Compound	J: blackgrass, herbicidal effect
Cc1nn(C)c(=O)c(-c2c(-c3ccc(OCc4ccccc4)cc3)sc3ccccc23)c1O [1-133]	1 (Herbicidal rate of 5% or more and less than 20%)
Cc1nn(C)c(=O)c(-c2c(-c3ccc(OCC4CC4(F)F)cc3)sc3ccccc23)c1O (centres unmarked) [1-138]	5 (Herbicidal rate of 90% or more (almost completely withered))

Tested on: windgrass
Assay: Test Example 5: herbicidal effect by foliage application, plastic box (Table 20, symbol L)
Assay type: in vivo, windgrass (Apera spica-venti)
Conditions: foliage application, AAH 320 g/ha, three weeks after application
Outline: as §4

Compound	L: windgrass, herbicidal effect
Cc1nn(C)c(=O)c(-c2c(-c3ccc(OCc4ccccc4)cc3)sc3ccccc23)c1O [1-133]	0 (Herbicidal rate of 5% or less (almost no effect))
Cc1nn(C)c(=O)c(-c2c(-c3ccc(OCC4CC4(F)F)cc3)sc3ccccc23)c1O (centres unmarked) [1-138]	5 (Herbicidal rate of 90% or more (almost completely withered))

Tested on: velvetleaf
Assay: Test Example 5: herbicidal effect by foliage application, plastic box (Table 20, symbol M)
Assay type: in vivo, velvetleaf (Abutilon theophrasti)
Conditions: foliage application, AAH 320 g/ha, three weeks after application
Outline: as §4

Compound	M: velvetleaf, herbicidal effect
Cc1nn(C)c(=O)c(-c2c(-c3ccc(OCc4ccccc4)cc3)sc3ccccc23)c1O [1-133]	0 (Herbicidal rate of 5% or less (almost no effect))
Cc1nn(C)c(=O)c(-c2c(-c3ccc(OCC4CC4(F)F)cc3)sc3ccccc23)c1O (centres unmarked) [1-138]	4 (Herbicidal rate of 70% or more and less than 90%)

Tested on: redroot pigweed
Assay: Test Example 5: herbicidal effect by foliage application, plastic box (Table 20, symbol N)
Assay type: in vivo, redroot pigweed (Amaranthus retroflexus)
Conditions: foliage application, AAH 320 g/ha, three weeks after application
Outline: as §4

Compound	N: redroot pigweed, herbicidal effect
Cc1nn(C)c(=O)c(-c2c(-c3ccc(OCc4ccccc4)cc3)sc3ccccc23)c1O [1-133]	5 (Herbicidal rate of 90% or more (almost completely withered))
Cc1nn(C)c(=O)c(-c2c(-c3ccc(OCC4CC4(F)F)cc3)sc3ccccc23)c1O (centres unmarked) [1-138]	3 (Herbicidal rate of 40% or more and less than 70%)

Tested on: chickweed
Assay: Test Example 5: herbicidal effect by foliage application, plastic box (Table 20, symbol P)
Assay type: in vivo, common chickweed (Stellaria media)
Conditions: foliage application, AAH 320 g/ha, three weeks after application
Outline: as §4

Compound	P: chickweed, herbicidal effect
Cc1nn(C)c(=O)c(-c2c(-c3ccc(OCc4ccccc4)cc3)sc3ccccc23)c1O [1-133]	5 (Herbicidal rate of 90% or more (almost completely withered))
Cc1nn(C)c(=O)c(-c2c(-c3ccc(OCC4CC4(F)F)cc3)sc3ccccc23)c1O (centres unmarked) [1-138]	5 (Herbicidal rate of 90% or more (almost completely withered))

Reference: patent US20230085307A1, “PYRIDAZINONE COMPOUND AND HERBICIDE” (NISSAN CHEMICAL CORPORATION, priority 2019, published 2023)
